These results are taken from patent US11332716B2, “Methods and compositions for producing pancreatic beta cells” (The Regents of the University of California, priority 2015, dated 2022).

The target of one assay is LTK (Homo sapiens, UniProt P29376). The settings on record: at 1 nM; cited from earlier work.
A further assay deals with ALK (Homo sapiens, UniProt Q9UM73). As to conditions: at 1 nM; cited from earlier work.
The next assay addresses T1, Flt3 (Homo sapiens, UniProt P36888).
T1 sequence (P36888 27-993): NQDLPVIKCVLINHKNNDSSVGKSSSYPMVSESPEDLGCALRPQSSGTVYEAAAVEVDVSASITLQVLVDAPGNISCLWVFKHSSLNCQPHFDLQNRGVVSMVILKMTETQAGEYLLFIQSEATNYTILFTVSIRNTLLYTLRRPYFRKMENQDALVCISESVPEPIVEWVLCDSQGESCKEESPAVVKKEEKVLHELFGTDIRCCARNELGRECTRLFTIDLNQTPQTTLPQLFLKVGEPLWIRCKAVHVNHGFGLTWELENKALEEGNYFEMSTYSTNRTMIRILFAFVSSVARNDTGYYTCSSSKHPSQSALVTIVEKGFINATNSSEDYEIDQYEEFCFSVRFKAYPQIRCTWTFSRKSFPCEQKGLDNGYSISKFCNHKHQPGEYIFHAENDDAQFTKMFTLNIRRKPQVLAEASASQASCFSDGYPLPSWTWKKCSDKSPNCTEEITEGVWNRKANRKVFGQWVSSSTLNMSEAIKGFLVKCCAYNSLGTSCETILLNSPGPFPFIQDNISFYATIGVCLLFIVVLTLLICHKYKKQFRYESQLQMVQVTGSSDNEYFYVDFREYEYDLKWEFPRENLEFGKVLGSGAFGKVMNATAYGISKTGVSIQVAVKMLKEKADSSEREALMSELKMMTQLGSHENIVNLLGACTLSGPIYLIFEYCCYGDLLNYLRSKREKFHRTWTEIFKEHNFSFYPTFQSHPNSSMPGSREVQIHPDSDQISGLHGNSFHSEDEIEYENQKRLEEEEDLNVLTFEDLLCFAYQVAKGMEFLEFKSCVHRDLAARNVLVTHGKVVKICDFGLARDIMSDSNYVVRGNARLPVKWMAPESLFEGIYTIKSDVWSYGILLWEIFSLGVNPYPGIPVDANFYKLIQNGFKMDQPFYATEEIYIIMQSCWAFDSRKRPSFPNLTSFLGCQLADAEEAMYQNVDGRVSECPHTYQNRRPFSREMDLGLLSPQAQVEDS
The settings on record: at 1 nM; cited from earlier work.

The target of the next assay is T2, Axl (Homo sapiens, UniProt P30530).
T2 sequence (P30530 26-894): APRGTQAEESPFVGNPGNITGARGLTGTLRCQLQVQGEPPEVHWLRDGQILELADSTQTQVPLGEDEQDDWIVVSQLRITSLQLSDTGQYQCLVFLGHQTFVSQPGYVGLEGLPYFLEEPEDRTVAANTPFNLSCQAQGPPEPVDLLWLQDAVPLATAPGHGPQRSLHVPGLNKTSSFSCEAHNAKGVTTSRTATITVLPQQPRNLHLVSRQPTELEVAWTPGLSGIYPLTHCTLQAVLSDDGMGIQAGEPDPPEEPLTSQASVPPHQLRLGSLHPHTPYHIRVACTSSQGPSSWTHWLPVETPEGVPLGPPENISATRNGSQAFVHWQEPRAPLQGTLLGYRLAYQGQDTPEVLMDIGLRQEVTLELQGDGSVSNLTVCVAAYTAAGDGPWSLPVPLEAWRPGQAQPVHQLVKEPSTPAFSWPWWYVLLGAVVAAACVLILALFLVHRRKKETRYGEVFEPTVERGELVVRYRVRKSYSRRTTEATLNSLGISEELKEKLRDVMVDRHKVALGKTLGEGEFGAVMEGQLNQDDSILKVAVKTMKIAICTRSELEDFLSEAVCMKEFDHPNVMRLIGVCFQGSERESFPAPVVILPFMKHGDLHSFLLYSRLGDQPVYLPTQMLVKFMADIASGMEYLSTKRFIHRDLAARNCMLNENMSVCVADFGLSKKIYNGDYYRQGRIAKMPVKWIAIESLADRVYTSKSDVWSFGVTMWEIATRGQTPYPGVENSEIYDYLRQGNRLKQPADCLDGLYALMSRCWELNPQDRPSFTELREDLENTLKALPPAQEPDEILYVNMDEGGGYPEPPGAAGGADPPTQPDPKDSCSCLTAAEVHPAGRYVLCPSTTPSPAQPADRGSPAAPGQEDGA
The settings on record: at 1 nM; cited from earlier work.

Assay [1] concerns MEL1 INS GFP/W hESC spheres. The assay is described as follows: hESC suspension differentiation, flow cytometry of PDX1 and NKX6.1. The format is cell-based, human. As to conditions: alone, conditions 2 and 3; day 9.5.
Source text: Treatments consisted of combinations of Cyclopamine (C), Noggin (N), and retinoic acid (R) during days 6-8, followed by subdivision of each condition into three treatment groups during day 9-9.5. Group 1) continuation of day 6-8 treatment; Group 2) treatment with EGF and KGF (EK); Group 3) treatment with EGF, KGF, and Noggin (EKN). […] Data shown are representatives of results obtained in two independent experiments. […] FIG. 17B: Quantification of PDX1 (orange gate) and NKX6.1 (blue gate) protein expressing cells in individual conditions after 9.5 days of differentiation.
Suspension-based differentiations were carried out as follows. Briefly, confluent cultures were dissociated into single cell suspension by incubation with TrypLE (Gibco). […] To induce definitive endoderm differentiation, aggregates were collected 24 hours later in a 50 ml falcon tube, allowed to settle by gravity, washed once with PBS and re-suspended in d1 media (RPMI (Gibco) containing 0.2% FBS, 1:5000 ITS (Gibco), 100 ng/ml Activin A, and 50 ng/ml WNT3a (R&D systems)). Clusters from 3 wells were combined into 2 wells at this point and distributed into fresh low-attachment plates in 5.5 ml d1 media. Media thereafter was changed daily, by removing either 4.5 ml media (at the end of d1) or 5.5 ml media the following days and adding back 5.5 ml fresh media until day 9. After day 9, only 5 ml of media was removed and added daily.
Briefly, spheres were collected and allowed to settle by gravity. Clusters were washed once in PBS and dissociated by gentle pipetting after 12-15 minutes incubation in Accumax (Innovative Cell Technologies). For sorting, cell suspensions were filtered and re-suspended in FACS buffer consisting of phosphate-buffered saline (PBS) (UCSF cell culture facility) containing 2 mM EDTA (Ambion) and 1% BSA (Sigma). Dead cells were excluded by DAPI (Sigma) staining Cell sorting was performed on a FACS Aria II (BD Bioscience). […]
For assay [2], the system named is MEL1 INS GFP/W hESC spheres. The assay is described as follows: hESC suspension differentiation, NEUROG3 immunofluorescence. As to conditions: days 6-9.5. In kind it is cell-based, human. Here is the method:
Undifferentiated MEL1 INS^GFP/W reporter cells (Micallef et al, 2012) were maintained on mouse embryo fibroblast feeder layers (Millipore) in hESC media as described (Guo et al, 2013b). Suspension-based differentiations were carried out as follows. Briefly, confluent cultures were dissociated into single cell suspension by incubation with TrypLE (Gibco). Cells were counted and each well of 6-well low-adherence plates were seeded with 5.5×10^6 cells in 5.5 ml hES media supplemented with 10 ng/ml Activin A (R&D systems) and 10 ng/ml HeregulinB1 (Peprotech). Plates were placed on an orbital shaker at 100 rpm to induce sphere formation, as described (Schulz et al, 2012). To induce definitive endoderm differentiation, aggregates were collected 24 hours later in a 50 ml falcon tube, allowed to settle by gravity, washed once with PBS and re-suspended in d1 media (RPMI (Gibco) containing 0.2% FBS, 1:5000 ITS (Gibco), 100 ng/ml Activin A, and 50 ng/ml WNT3a (R&D systems)). Clusters from 3 wells were combined into 2 wells at this point and distributed into fresh low-attachment plates in 5.5 ml d1 media. Media thereafter was changed daily, by removing either 4.5 ml media (at the end of d1) or 5.5 ml media the following days and adding back 5.5 ml fresh media until day 9. After day 9, only 5 ml of media was removed and added daily. […]

Sequence of LTK (P29376 17-864, species assumed): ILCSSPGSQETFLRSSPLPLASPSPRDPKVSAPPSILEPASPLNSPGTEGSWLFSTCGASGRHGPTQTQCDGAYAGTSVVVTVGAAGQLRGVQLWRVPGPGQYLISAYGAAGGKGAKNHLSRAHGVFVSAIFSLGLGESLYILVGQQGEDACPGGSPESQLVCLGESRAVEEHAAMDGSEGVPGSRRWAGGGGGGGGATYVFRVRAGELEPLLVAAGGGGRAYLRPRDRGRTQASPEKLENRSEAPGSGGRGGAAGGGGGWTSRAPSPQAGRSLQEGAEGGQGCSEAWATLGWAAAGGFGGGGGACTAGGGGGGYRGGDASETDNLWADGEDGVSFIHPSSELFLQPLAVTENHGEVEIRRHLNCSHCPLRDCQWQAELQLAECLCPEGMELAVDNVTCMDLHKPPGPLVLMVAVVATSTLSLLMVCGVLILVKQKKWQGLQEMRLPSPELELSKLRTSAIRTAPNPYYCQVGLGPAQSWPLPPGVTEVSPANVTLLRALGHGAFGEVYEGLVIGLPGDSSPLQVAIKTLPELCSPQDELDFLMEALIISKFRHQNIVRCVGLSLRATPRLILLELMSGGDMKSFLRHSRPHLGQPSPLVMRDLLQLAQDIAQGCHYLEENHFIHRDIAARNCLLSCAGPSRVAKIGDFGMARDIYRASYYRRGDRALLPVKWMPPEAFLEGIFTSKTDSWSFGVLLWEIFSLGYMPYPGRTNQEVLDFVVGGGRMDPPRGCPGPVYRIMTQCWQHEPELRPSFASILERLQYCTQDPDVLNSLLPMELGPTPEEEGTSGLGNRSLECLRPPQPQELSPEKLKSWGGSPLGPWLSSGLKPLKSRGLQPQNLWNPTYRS
Sequence of ALK (Q9UM73 19-1620, species assumed): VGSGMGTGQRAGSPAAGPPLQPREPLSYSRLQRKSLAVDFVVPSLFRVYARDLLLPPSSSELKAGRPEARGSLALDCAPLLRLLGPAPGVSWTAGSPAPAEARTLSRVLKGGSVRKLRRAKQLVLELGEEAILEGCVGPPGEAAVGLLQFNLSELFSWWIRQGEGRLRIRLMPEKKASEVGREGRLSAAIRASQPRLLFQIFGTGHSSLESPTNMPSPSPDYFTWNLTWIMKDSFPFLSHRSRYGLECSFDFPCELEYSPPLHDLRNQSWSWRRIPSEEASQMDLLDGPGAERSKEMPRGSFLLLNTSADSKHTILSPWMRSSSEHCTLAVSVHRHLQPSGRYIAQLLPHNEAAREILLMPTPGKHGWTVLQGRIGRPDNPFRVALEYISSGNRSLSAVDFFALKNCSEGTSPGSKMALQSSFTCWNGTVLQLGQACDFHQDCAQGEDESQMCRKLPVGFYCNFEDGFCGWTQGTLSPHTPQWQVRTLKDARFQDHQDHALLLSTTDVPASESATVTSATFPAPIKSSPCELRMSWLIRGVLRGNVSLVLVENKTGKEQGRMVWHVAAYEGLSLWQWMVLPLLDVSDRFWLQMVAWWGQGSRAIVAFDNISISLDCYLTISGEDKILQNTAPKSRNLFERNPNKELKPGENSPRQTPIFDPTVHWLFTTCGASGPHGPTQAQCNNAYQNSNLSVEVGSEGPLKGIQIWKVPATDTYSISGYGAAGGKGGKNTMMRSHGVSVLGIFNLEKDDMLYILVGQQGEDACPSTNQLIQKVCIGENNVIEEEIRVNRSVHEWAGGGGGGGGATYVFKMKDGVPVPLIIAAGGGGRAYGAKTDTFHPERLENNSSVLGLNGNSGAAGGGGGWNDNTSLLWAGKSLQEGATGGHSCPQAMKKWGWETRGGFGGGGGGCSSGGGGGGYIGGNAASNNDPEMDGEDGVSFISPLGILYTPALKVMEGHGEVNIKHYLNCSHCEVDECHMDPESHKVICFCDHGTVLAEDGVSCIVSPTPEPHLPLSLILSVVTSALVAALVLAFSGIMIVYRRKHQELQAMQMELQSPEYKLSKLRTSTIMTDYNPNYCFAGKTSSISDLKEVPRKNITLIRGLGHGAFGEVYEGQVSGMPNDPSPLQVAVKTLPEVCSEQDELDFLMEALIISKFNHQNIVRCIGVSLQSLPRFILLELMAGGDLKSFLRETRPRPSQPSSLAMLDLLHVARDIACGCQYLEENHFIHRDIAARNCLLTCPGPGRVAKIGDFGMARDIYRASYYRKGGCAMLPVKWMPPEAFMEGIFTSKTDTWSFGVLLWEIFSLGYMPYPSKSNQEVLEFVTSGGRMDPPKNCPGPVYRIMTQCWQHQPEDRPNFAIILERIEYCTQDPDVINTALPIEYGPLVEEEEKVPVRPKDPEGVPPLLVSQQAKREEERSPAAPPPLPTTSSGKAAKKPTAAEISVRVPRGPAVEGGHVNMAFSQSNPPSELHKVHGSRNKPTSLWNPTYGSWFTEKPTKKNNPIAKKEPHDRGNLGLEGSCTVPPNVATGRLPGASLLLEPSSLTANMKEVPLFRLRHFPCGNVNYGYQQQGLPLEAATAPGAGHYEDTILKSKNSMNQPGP

For the molecule `CCc1nc(C(N)=O)c(Nc2ccc(N3CCC(N4CCN(C)CC4)CC3)c(OC)c2)nc1NC1CCOCC1` [ASP2215], at LTK, the “inhibition of LTK” value was “over 50%”. Also, at ALK, the “inhibition of ALK” value is “over 50%”. On Flt3, the “inhibition of FLT3” value is listed as “over 50%”. The “inhibition of AXL” value on Axl is listed as “over 50%”.

B1: Noggin: the BMP inhibitor Noggin (protein, UniProt Q13253 28-232, looked up)
Noggin: QHYLHIRPAPSDNLPLVDLIEHPDPIFDPKEKDLNETLLRSLLGGHYDPGFMATSPPEDRPGGGGGAAGGAEDLAELDQLLRQRPSGAMPSEIKGLEFSEGLAQGKKQRLSKKLRRKLQMWLWSQTFCPVLYAWNDLGSRFWPRYVKVGSCFSKRSCSVPEGMVCKPSKSVHLTVLRWRCQRRGGQRCGWIPIQYPIISECKCSC
With B1, the “generation of PDX1+ cells over base media alone” value in assay [1] was “did not result in enhanced generation”. Further, the “NEUROG3 expression (endocrine differentiation)” value in assay [2] is listed as “noted only when spheres had been exposed to N”.
